Experiments:
[1] = Two-photon cross section and action spectra; assay type: physicochemical; conditions: MOPS buffer pH 7.2, presence of Zn2+; 780 nm
Experimental: The two-photon cross section (δ) was determined by using femto second (fs) fluorescence measurement technique.
The intensities of the two-photon induced fluorescence spectra of the reference and the sample probe were measured, and the two-photon cross section of the sample probe was calculated according to Equation 3:
[formula] wherein the subscripts s and r represent sample and reference molecules, respectively, δ represents the two-photon cross section, S represents the strength of signals collected by a CCD detector, φ represents the fluorescence quantum efficiency, φrepresents the total fluorescence collection efficiency of an experimental system, c represents the number density of the molecules within each of the solutions, and δr represents the two-photon cross section of reference molecules.
Referring to FIG. 9, the two-photon action spectra of the Zn^2+ complexes with AZn1 and AZn2 in the buffer solutions indicated a φδ value of ˜90 GM at 780 nm, 4˜24-fold larger than those of TSQ and FluZin-3.

[2] = Dissociation constants for Zn2+ from one- and two-photon fluorescence titration; assay type: binding
Experimental: MOPS buffer solutions (30 mM, pH 7.2, 0.1 M KCl) containing different amounts of ZnSO4 and 10 mM EGTA were prepared.
The concentration of free Zn^2+ ([Zn^2+]free) was calculated from KZn−EGTA^app, [EGTA]free, and [Zn^2+]total using Equation 1: [Zn^2+]free=[Zn^2+]total/(αZn×KZn−EGTA^app×[EGTA]free) (1) where KZn−EGTA^app=KZn−EGTA/αZnαEGTA, αZn=1+10^(pH−pK^1^)+10^(2pH−pK^1^−pK^2^)+10^(3pH−pK^1^−pK^2^−pK^3^) . . . , αEGTA=1+10^(pK^1^−pH+0.11)+10^(pK^1^+pK^2^−2pH+0.22)+10^(pK^1^+pK^2^+pK^3^−3pH+0.33) . . . , and [EGTA]free=[EGTA]total−[Zn^2+]total. Therefore,
Then, the stability constant (KZn−EGTA) of the EGTA−Zn^2+ complex was obtained by the known method. For EGTA (pH 7.2, 0.1 M KCl, 25° C.), pK1, pK2, pK3 and log^K^Zn−EGTA were 9.40, 8.79, 2.70 and 12.6, respectively. […]
In order to determine accurate dissociation constants for the two-photon probes, fluorescence titration curves were obtained from FIGS. 3a and 3e using Equation 2:
[formula] where F is the fluorescence intensity, Fmax is the maximum fluorescence intensity, Fo is the fluorescence intensity in the absence of Zn^2+, and [Zn^2+]free is the concentration of free Zn^2+.
The Kd value that best fits the titration curve ([…]) with Equation 2 was calculated by using the Excel program. […]

293 cells = test: TPEF monitoring of labeled 293 cells after SNOC and TPEN; assay type: cell-based; conditions: 10 mM SNOC, 0.1 mM TPEN, compared with AZn2
Experimental: Referring to FIG. 14, the TPEF intensity increased gradually with time and then decreased abruptly upon addition of 0.1 mM TPEN, a membrane permeable Zn^2+chelator that can effectively remove Zn^2+.

[3] = Fluorescence enhancement with varying Zn2+ concentrations; conditions: for FEF^OP, fluorescence enhancement factor by one-photon process / FEF^TP, fluorescence enhancement factor by two-photon process: (F−Fmin)/Fmin, MOPS buffer pH 7.2, presence of Zn2+
Experimental: The one-photon absorption and emission spectra and two-photon emission spectra of the two-photon probes AZn2 and AZn1 were measured with varying Zn^2+concentrations, and the results are shown in FIGS. 3a through 3f.
As can be known from FIGS. 3a through 3f, when small increments of Zn^2+were added to AZn1 and AZn2 in MOPS buffer solution (30 mM, pH 7.2, /=0.10), the one- and two-photon excitation fluorescence (emission) intensity increased gradually without affecting the absorption spectra, presumably due to the blocking of the photo-induced electron transfer (PET) process by the complexation with Zn^2+.
The fluorescence enhancement factors [FEF=(F−Fmin)/Fmin] of the two-photon probe AZn2 measured for one- and two-photon processes were 2.5-fold larger than those of the two-photon probe AZn1 as a result of the lower fluorescence quantum yield (Φ) in the absence, and higher Φ in the presence, of excess Zn^2+. These analytical results can be more easily understood from the data in Table 2.

rat hippocampal slice = test: Monitoring of Zn2+ in rat hippocampal slice by TPM
Experimental: In this experimental example, TPM images were obtained from a part of acute rat hippocampal slice incubated with 10 μM AZn2 for 30 min at 37° C. Because the slice of a 14-day old rat was too big to show with one image, several TPM images were obtained in the same plane at ˜120 μm depth and combined. […]
The negligible TPEF (c) after addition of TPEN, which effectively remove the [Zn^2+]i, provides a supporting evidence for this observation.
When 50 mM KCl, a membrane depolarizer causing the release of Zn^2+, was added to the imaging solution, the TPEF intensity increased, and then decreased upon treatment with TPEN. Similar results can also be found in (d)-(f) of FIG. 15.

δ, peak two-photon cross section [1]	φδ, two-photon action cross section [1]	Compound	detection limit for Zn2+ [2]	TPEF response after SNOC then TPEN (293 cells)	FEF^OP, fluorescence enhancement factor by one-photon process [3]	FEF^TP, fluorescence enhancement factor by two-photon process [3]	TPEF intensity after addition of KCl (rat hippocampal slice; 50 mM KCl, hilus of dentate gyrus)	TPEF after addition of TPEN (rat hippocampal slice; hilus of dentate gyrus, FIG. 17)	depth at which intracellular free Zn2+ is imaged in live tissue (rat hippocampal slice; rat hippocampal slice, 10 μM probe)	FEF (one- and two-photon) relative to AZn1 ([3]; larger than those of AZn1)
210 GM	86 GM	Nc1ccc(NCCN(Cc2ccccn2)Cc2ccccn2)cc1 [AZn1]	sub-nM range	the response was smaller	21	24				
140 GM	95 GM	COc1cc(NC(=O)CN(C)c2ccc3cc(C(C)=O)ccc3c2)ccc1NCCN(Cc1ccccn1)Cc1ccccn1 [AZn2]	sub-nM range		54	52	increased	clear reduction in TPEF	80-150 μm	2.5 fold
